Data: patent publication US20230114728A1 (Venatorx Pharmaceuticals, Inc., priority 2019, published 2023)
Converted amounts (≈) assume the structure as drawn.

Legend:
Experiment in all cases: Broth microdilution MIC in iron-depleted CAMHB (IDM)
Type in all cases: cell-based
[1] = system: P. aeruginosa CDC-0054 producing VIM-4, OXA-50, and PAO; settings: Pseudomonas aeruginosa, read-out: Minimum Inhibitory Concentration, P. aeruginosa CDC-0054
Method in brief: (§1)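 IDM = CAMHB stripped with Chelex 100 resin 2 h, supplemented CaCl2 82.5 mg/L, MgCl2 94.1 mg/L, ZnSO4 10 μM, pH 7.3. 2-fold compound dilutions; 2-8×10^5 CFU/mL; 37° C; Acinetobacter 20-24 h, Pseudomonas 16-20 h. Visual MIC.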

[2] = system: P. aeruginosa CDC-0095 producing OXA-50, and PAO; settings: Pseudomonas aeruginosa, read-out: Minimum Inhibitory Concentration, P. aeruginosa CDC-0095
Method in brief: as §1

[3] = system: A. baumannii IL123 (ABΔ3-ARAEcPore); settings: Acinetobacter baumannii, read-out: Minimum Inhibitory Concentration, IL-2123
Method in brief: as §1

P. aeruginosa ATCC 35151 = settings: Pseudomonas aeruginosa, ATCC35151; iron-depleted MHB (IDM); hyper-permeable strain; read-out: Minimum Inhibitory Concentration, P. aeruginosa ATCC 35151
Method in brief: as §1

[4] = system: P. aeruginosa CDC-0090 producing KPC-5, OXA-50, and PAO; settings: Pseudomonas aeruginosa, read-out: Minimum Inhibitory Concentration, P. aeruginosa CDC-0090
Method in brief: as §1

[5] = system: P. aeruginosa (ΔmexAB-oprM); settings: Pseudomonas aeruginosa, read-out: Minimum Inhibitory Concentration, P. aeruginosa ΔmexAB-OprM
Method in brief: as §1

P. aeruginosa ATCC 27853 = settings: Pseudomonas aeruginosa, ATCC27853, read-out: Minimum Inhibitory Concentration, P. aeruginosa ATCC 27853
Method in brief: as §1

A. baumannii ATCC 17978 = settings: Acinetobacter baumannii, ATCC17978, read-out: Minimum Inhibitory Concentration, ATCC 17978
Method in brief: as §1

[6] = system: A. baumannii CDC-0083 producing NDM-1, PER-7, OXA-23, and OXA-69; settings: Acinetobacter baumannii, read-out: Minimum Inhibitory Concentration, CDC-0083
Method in brief: as §1

| SMILES | MIC [1] [µg/mL] | MIC [2] [µg/mL] | MIC [3] [µg/mL] | MIC (P. aeruginosa ATCC 35151) [µg/mL] | MIC [4] [µg/mL] | MIC [5] [µg/mL] | MIC (P. aeruginosa ATCC 27853) [µg/mL] | MIC (A. baumannii ATCC 17978) [µg/mL] | MIC [6] [µg/mL] |
| --- | --- | --- | --- | --- | --- | --- | --- | --- | --- |
| NCCCN1CCN(C(=O)N[C@@H](C(=O)N[C@H]2Cc3ccc(F)c(C(=O)O)c3OB2O)c2c(F)cc(O)c(O)c2F)C(=O)C1=O (single isomer, unassigned) [Example 41] | 2 to 4 (≈ 3.21 to 6.42 µM) | 2 to 4 (≈ 3.21 to 6.42 µM) | 2 to 4 (≈ 3.21 to 6.42 µM) | 0.25 (≈ 0.401 µM) | 0.25 (≈ 0.401 µM) | 0.25 (≈ 0.401 µM) | 2 to 4 (≈ 3.21 to 6.42 µM) | 0.25 (≈ 0.401 µM) | 0.5 to 1 (≈ 0.802 to 1.6 µM) |
| NCCN1CCN(C(=O)N[C@@H](C(=O)N[C@H]2Cc3ccc(F)c(C(=O)O)c3OB2O)c2c(F)cc(O)c(O)c2Cl)C(=O)C1=O (single isomer, unassigned) [Example 26] | 0.5 to 1 (≈ 0.799 to 1.6 µM) | 32 to 64 (≈ 51.1 to 102 µM) | – | 0.25 (≈ 0.4 µM) | 0.25 (≈ 0.4 µM) | 0.25 (≈ 0.4 µM) | 0.5 to 1 (≈ 0.799 to 1.6 µM) | 0.25 (≈ 0.4 µM) | 0.25 (≈ 0.4 µM) |
| CCN1CCN(C(=O)NC(C(=O)N[C@H]2Cc3ccc(F)c(C(=O)O)c3OB2O)c2cc(F)c(O)c(O)c2Cl)C(=O)C1=O (stereo partly drawn) [Example 42, (3R)-3-(2-(2-chloro-5-fluoro-3,4-dihydroxyphenyl)-2-(4-ethyl-2,3-dioxopiperazine-1-carboxamido)acetamido)-7-fluoro-2-hydroxy-3,4-dihydro-2H-benzo[e][1,2]oxaborinine-8-carboxylic acid] | 0.5 to 1 (≈ 0.819 to 1.64 µM) | 0.5 to 1 (≈ 0.819 to 1.64 µM) | 0.5 to 1 (≈ 0.819 to 1.64 µM) | 0.25 (≈ 0.409 µM) | 0.25 (≈ 0.409 µM) | 0.25 (≈ 0.409 µM) | 0.5 to 1 (≈ 0.819 to 1.64 µM) | 0.25 (≈ 0.409 µM) | 0.25 (≈ 0.409 µM) |
| NCCN1CCN(C(=O)N[C@@H](C(=O)N[C@H]2Cc3ccc(F)c(C(=O)O)c3OB2O)c2c(F)cc(O)c(O)c2F)C(=O)C1=O (single isomer, unassigned) [Example 40] | 8 to 16 (≈ 13.1 to 26.3 µM) | 2 to 4 (≈ 3.28 to 6.57 µM) | 8 to 16 (≈ 13.1 to 26.3 µM) | 0.25 (≈ 0.41 µM) | 8 to 16 (≈ 13.1 to 26.3 µM) | 0.25 (≈ 0.41 µM) | 2 to 4 (≈ 3.28 to 6.57 µM) | 0.25 (≈ 0.41 µM) | 0.5 to 1 (≈ 0.821 to 1.64 µM) |
| NCCCN1CCN(C(=O)N[C@@H](C(=O)N[C@H]2Cc3ccc(F)c(C(=O)O)c3OB2O)c2c(F)cc(O)c(O)c2Cl)C(=O)C1=O (single isomer, unassigned) [Example 27] | 0.25 (≈ 0.391 µM) | 8 to 16 (≈ 12.5 to 25 µM) | – | 0.25 (≈ 0.391 µM) | 0.25 (≈ 0.391 µM) | 0.25 (≈ 0.391 µM) | 0.5 to 1 (≈ 0.782 to 1.56 µM) | 0.25 (≈ 0.391 µM) | 0.25 (≈ 0.391 µM) |
| CCN1CCN(C(=O)NC(C(=O)N[C@H]2Cc3cccc(C(=O)O)c3OB2O)c2ccc(O)c(NC(=O)c3ccc(O)c(O)c3Cl)c2)C(=O)C1=O (stereo partly drawn) [Example 74, (3R)-3-(2-(3-(2-chloro-3,4-dihydroxybenzamido)-4-hydroxyphenyl)-2-(4-ethyl-2,3-dioxopiperazine-1-carboxamido)acetamido)-2-hydroxy-3,4-dihydro-2H-benzo[e][1,2]oxaborinine-8-carboxylic acid] | 0.5 to 1 (≈ 0.704 to 1.41 µM) | 0.5 to 1 (≈ 0.704 to 1.41 µM) | – | 0.25 (≈ 0.352 µM) | 32 to 64 (≈ 45.1 to 90.2 µM) | 0.5 to 1 (≈ 0.704 to 1.41 µM) | 8 to 16 (≈ 11.3 to 22.5 µM) | 32 to 64 (≈ 45.1 to 90.2 µM) | 32 to 64 (≈ 45.1 to 90.2 µM) |
| O=C(NC(C(=O)N[C@H]1Cc2ccc(F)c(C(=O)O)c2OB1O)c1ncc(O)cc1F)c1ccc(O)c(O)c1Cl (stereo partly drawn) [Example 8, (3R)-3-(2-(2-chloro-3,4-dihydroxybenzamido)-2-(3-fluoro-5-hydroxypyridin-2-yl)acetamido)-7-fluoro-2-hydroxy-3,4-dihydro-2H-benzo[e][1,2]oxaborinine-8-carboxylic acid] | 2 to 4 (≈ 3.55 to 7.1 µM) | 2 to 4 (≈ 3.55 to 7.1 µM) | 32 to 64 (≈ 56.8 to 114 µM) | 0.25 (≈ 0.444 µM) | 0.25 (≈ 0.444 µM) | 2 to 4 (≈ 3.55 to 7.1 µM) | 0.5 to 1 (≈ 0.887 to 1.77 µM) | 2 to 4 (≈ 3.55 to 7.1 µM) | 32 to 64 (≈ 56.8 to 114 µM) |
| CCN1CCN(C(=O)NC(C(=O)N[C@H]2Cc3cccc(C(=O)O)c3OB2O)c2cccc(NC(=O)c3ccc(O)c(O)c3Cl)c2)C(=O)C1=O (stereo partly drawn) [Example 73, (3R)-3-(2-(3-(2-chloro-3,4-dihydroxybenzamido)phenyl)-2-(4-ethyl-2,3-dioxopiperazine-1-carboxamido)acetamido)-2-hydroxy-3,4-dihydro-2H-benzo[e][1,2]oxaborinine-8-carboxylic acid] | 2 to 4 (≈ 2.88 to 5.76 µM) | 2 to 4 (≈ 2.88 to 5.76 µM) | – | 0.25 (≈ 0.36 µM) | 2 to 4 (≈ 2.88 to 5.76 µM) | 0.25 (≈ 0.36 µM) | 8 to 16 (≈ 11.5 to 23.1 µM) | 2 to 4 (≈ 2.88 to 5.76 µM) | 32 to 64 (≈ 46.1 to 92.2 µM) |
| CS(=O)(=O)N1CCN(C(=O)NC(C(=O)N[C@H]2Cc3ccc(F)c(C(=O)O)c3OB2O)c2ccc(O)c(O)c2Cl)C1=O (stereo partly drawn) [Example 23, (3R)-3-(2-(2-chloro-3,4-dihydroxyphenyl)-2-(3-(methylsulfonyl)-2-oxoimidazolidine-1-carboxamido)acetamido)-7-fluoro-2-hydroxy-3,4-dihydro-2H-benzo[e][1,2]oxaborinine-8-carboxylic acid] | 0.5 to 1 (≈ 0.813 to 1.63 µM) | 8 to 16 (≈ 13 to 26 µM) | – | 0.25 (≈ 0.407 µM) | 0.5 to 1 (≈ 0.813 to 1.63 µM) | 0.25 (≈ 0.407 µM) | 0.5 to 1 (≈ 0.813 to 1.63 µM) | 0.25 (≈ 0.407 µM) | 0.5 to 1 (≈ 0.813 to 1.63 µM) |
| O=C(O)c1ccc(C(NC(=O)c2c(F)cc(O)c(O)c2Cl)C(=O)N[C@H]2Cc3ccc(F)c(C(=O)O)c3OB2O)cc1F (stereo partly drawn) [Example 71, (3R)-3-(2-(4-carboxy-3-fluorophenyl)-2-(2-chloro-6-fluoro-3,4-dihydroxybenzamido)acetamido)-7-fluoro-2-hydroxy-3,4-dihydro-2H-benzo[e][1,2]oxaborinine-8-carboxylic acid] | 0.5 to 1 (≈ 0.821 to 1.64 µM) | 0.5 to 1 (≈ 0.821 to 1.64 µM) | – | 0.25 (≈ 0.411 µM) | 2 to 4 (≈ 3.29 to 6.57 µM) | 0.25 (≈ 0.411 µM) | 0.5 to 1 (≈ 0.821 to 1.64 µM) | 32 to 64 (≈ 52.6 to 105 µM) | 32 to 64 (≈ 52.6 to 105 µM) |
| NC(C(=O)N[C@H]1Cc2ccc(F)c(C(=O)O)c2OB1O)c1c(F)cc(O)c(O)c1Cl (stereo partly drawn) [Example 25, (3R)-3-(2-amino-2-(2-chloro-6-fluoro-3,4-dihydroxyphenyl)acetamido)-7-fluoro-2-hydroxy-3,4-dihydro-2H-benzo[e][1,2]oxaborinine-8-carboxylic acid] | 32 to 64 (≈ 72.3 to 145 µM) | 32 to 64 (≈ 72.3 to 145 µM) | – | 8 to 16 (≈ 18.1 to 36.2 µM) | 32 to 64 (≈ 72.3 to 145 µM) | 32 to 64 (≈ 72.3 to 145 µM) | 32 to 64 (≈ 72.3 to 145 µM) | 32 to 64 (≈ 72.3 to 145 µM) | 32 to 64 (≈ 72.3 to 145 µM) |
| O=C(O)c1ccc(C(NC(=O)N2CCN(CCNC(=O)c3ccc(O)c(O)c3Cl)C(=O)C2=O)C(=O)N[C@H]2Cc3ccc(F)c(C(=O)O)c3OB2O)cc1F (stereo partly drawn) [Example 11, (3R)-3-(2-(4-carboxy-3-fluorophenyl)-2-(4-(2-(2-chloro-3,4-dihydroxybenzamido)ethyl)-2,3-dioxopiperazine-1-carboxamido)acetamido)-7-fluoro-2-hydroxy-3,4-dihydro-2H-benzo[e][1,2]oxaborinine-8-carboxylic acid] | – | – | – | 0.25 (≈ 0.323 µM) | – | 0.5 to 1 (≈ 0.646 to 1.29 µM) | 2 to 4 (≈ 2.58 to 5.17 µM) | – | – |
| CC(C)(C)[C@@H](NC(=O)N1CCN(CCNC(=O)c2c(F)cc(O)c(O)c2Cl)C(=O)C1=O)C(=O)N[C@H]1Cc2ccc(F)c(C(=O)O)c2OB1O [Example 80, (R)-3-((R)-2-(4-(2-(2-chloro-6-fluoro-3,4-dihydroxybenzamido)ethyl)-2,3-dioxopiperazine-1-carboxamido)-3,3-dimethylbutanamido)-7-fluoro-2-hydroxy-3,4-dihydro-2H-benzo[e][1,2]oxaborinine-8-carboxylic acid] | 2 to 4 (≈ 2.82 to 5.63 µM) | 2 to 4 (≈ 2.82 to 5.63 µM) | – | 0.25 (≈ 0.352 µM) | 2 to 4 (≈ 2.82 to 5.63 µM) | 0.25 (≈ 0.352 µM) | 2 to 4 (≈ 2.82 to 5.63 µM) | 0.5 to 1 (≈ 0.704 to 1.41 µM) | 32 to 64 (≈ 45.1 to 90.2 µM) |
